This assay deals with T1, F508delCFTR (Homo sapiens, UniProt P13569, DEL508-508).
T1 construct: expressed in transfected cells; host or cells: CFBE41o- (human lung derived epithelial cell line), doxycycline-inducible expression
Description: Cell Surface Expression-Horse Radish Peroxidase (CSE-HRP) assay. Type of assay: cell-based. The conditions noted are these: CFBE41o-F508delCFTR-HRP cells; for Maximum % activity (with co-corrector): with co-corrector (2 μM); for Maximum % activity (with co-corrector) / Maximum % activity (without co-corrector): normalized to on-plate positive control, highest concentration 20 μM. The essentials: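 Surface F508delCFTR-HRP was read by luminol luminescence after 18–24 h compound exposure at 33 °C, without or with 2 μM co-corrector. Doses were eight 3-fold steps from 20 μM, in doxycycline-induced (0.5 μg/mL, 72 h) CFBE41o- cells. % activity was scaled to the on-plate 2 μM positive control minus DMSO; EC50 came from a variable-slope sigmoid fit.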

Where [1] appears, read: test compound without co-corrector, 18-24 hours at 33° C., read-out: EC50 (without co-corrector).
[2] abbreviates: with co-corrector (2 μM of 3-[(2R,4R)-4-({[1-(2,2-difluoro-1,3-benzodioxol-5-yl)cyclopropyl]carbonyl}amino)-7-methoxy-3,4-dihydro-2H-chromen-2-yl]benzoic acid), read-out: EC50 (with co-corrector).

The structures appear in SMILES notation. Read-outs that look alike come from different tables or passages of the source.

T1 sequence (P13569 with tags, fused parts or gaps DEL508-508): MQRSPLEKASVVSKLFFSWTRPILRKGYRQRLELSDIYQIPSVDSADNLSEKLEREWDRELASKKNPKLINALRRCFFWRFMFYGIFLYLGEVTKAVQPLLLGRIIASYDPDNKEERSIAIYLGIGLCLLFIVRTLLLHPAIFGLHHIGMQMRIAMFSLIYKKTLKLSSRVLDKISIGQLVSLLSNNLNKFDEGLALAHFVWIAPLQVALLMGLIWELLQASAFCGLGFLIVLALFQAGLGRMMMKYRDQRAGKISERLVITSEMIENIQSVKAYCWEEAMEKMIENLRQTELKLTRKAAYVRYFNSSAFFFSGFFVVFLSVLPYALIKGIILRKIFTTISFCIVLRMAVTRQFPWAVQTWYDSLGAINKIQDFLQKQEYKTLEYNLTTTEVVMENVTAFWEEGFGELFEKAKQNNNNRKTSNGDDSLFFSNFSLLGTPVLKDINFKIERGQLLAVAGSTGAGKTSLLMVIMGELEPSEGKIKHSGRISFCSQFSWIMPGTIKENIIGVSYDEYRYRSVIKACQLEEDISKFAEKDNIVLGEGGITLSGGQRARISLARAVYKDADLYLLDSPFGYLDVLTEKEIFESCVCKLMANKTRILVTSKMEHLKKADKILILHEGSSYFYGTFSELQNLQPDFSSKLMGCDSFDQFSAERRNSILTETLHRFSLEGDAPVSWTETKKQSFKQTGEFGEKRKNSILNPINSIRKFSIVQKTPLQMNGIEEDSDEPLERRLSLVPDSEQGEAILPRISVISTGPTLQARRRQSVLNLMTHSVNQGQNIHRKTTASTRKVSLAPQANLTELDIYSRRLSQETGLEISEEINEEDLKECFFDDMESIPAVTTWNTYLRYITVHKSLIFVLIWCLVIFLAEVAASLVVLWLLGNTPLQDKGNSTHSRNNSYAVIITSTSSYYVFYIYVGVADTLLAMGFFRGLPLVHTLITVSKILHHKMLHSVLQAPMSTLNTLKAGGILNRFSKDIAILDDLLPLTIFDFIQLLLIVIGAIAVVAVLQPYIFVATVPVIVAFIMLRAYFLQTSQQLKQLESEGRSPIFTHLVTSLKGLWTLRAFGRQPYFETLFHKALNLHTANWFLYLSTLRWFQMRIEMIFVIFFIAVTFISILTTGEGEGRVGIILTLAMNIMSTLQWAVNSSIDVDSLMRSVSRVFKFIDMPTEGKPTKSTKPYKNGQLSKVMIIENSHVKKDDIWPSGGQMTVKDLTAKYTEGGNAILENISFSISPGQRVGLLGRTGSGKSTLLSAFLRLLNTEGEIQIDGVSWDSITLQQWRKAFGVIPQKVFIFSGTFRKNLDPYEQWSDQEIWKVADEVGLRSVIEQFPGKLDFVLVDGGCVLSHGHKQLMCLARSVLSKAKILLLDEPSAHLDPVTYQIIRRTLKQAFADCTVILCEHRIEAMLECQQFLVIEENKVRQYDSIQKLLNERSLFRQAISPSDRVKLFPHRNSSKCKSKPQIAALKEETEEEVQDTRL

In the case of `COc1ncc(C(F)(F)F)cc1CO[C@H]1[C@H](C(C)(C)C)[C@@H](C(=O)O)N(C(=O)[C@@H]2CCCO2)[C@H]1c1ccccc1C` [Example 129, (2S,3R,4S,5S)-3-tert-butyl-4-{[2-methoxy-5-(trifluoromethyl)pyridin-3-yl]methoxy}-5-(2-methylphenyl)-1-[(2S)-oxolane-2-carbonyl]pyrrolidine-2-carboxylic acid], the “Maximum % activity (with co-corrector)” value is “+++ (≥350)”; the “Maximum % activity (without co-corrector)” value was “++ (≥100 and <200)”. In addition, under setting [1], the EC50 (commonly the concentration that produces a half-maximal response) is 1000 to 10000 nM. Further, the EC50 under setting [2] was below 1000 nM.

For the molecule `COc1ncc(C(F)(F)F)cc1CO[C@H]1[C@H](C(C)(C)C)[C@@H](C(=O)O)N(C(=O)[C@@H]2CCCO2)[C@H]1c1cccc(C2CCC2)c1` [Example 140, (2S,3R,4S,5S)-3-tert-butyl-5-(3-cyclobutylphenyl)-4-{[2-methoxy-5-(trifluoromethyl)pyridin-3-yl]methoxy}-1-[(2S)-oxolane-2-carbonyl]pyrrolidine-2-carboxylic acid], the “Maximum % activity (with co-corrector)” value was “++ (≥150 and <350)”; the “Maximum % activity (without co-corrector)” value is listed as “+ (<100)”. The EC50 under setting [1] is below 1000 nM. For the same molecule, the EC50 under setting [2] was below 1000 nM.

`CCc1ccccc1[C@H]1[C@@H](OCCCc2cc(C(F)(F)F)cnc2OC)[C@H](C(C)(C)C)[C@@H](C(=O)O)N1C(=O)[C@@H]1CCCCO1` [Example 280, (2S,3R,4S,5S)-3-tert-butyl-5-(2-ethylphenyl)-4-{3-[2-methoxy-5-(trifluoromethyl)pyridin-3-yl]propoxy}-1-[(2S)-oxane-2-carbonyl]pyrrolidine-2-carboxylic acid]: the “Maximum % activity (with co-corrector)” value was “+++ (≥350)”; the “Maximum % activity (without co-corrector)” value is “++ (≥100 and <200)”. Also, under setting [1], the EC50 is below 1000 nM. For the same molecule, under setting [2], the EC50 was below 1000 nM.

Take `COc1ccc(C(F)(F)F)cc1CO[C@@H]1[C@H](C(C)(C)C)[C@@H](C(=O)O)N(C(=O)OC(C)C)[C@H]1c1cccnc1OC(C)C` [Example 94, (2S,3R,4R,5S)-3-tert-butyl-4-{[2-methoxy-5-(trifluoromethyl)phenyl]methoxy}-1-{[(propan-2-yl)oxy]carbonyl}-5-{2-[(propan-2-yl)oxy]pyridin-3-yl}pyrrolidine-2-carboxylic acid]: the “Maximum % activity (with co-corrector)” value is reported as “+ (<150)” and the “Maximum % activity (without co-corrector)” value was “+ (<100)”. Besides, under setting [1], the EC50 was above 10000 nM. Moreover, under setting [2], the EC50 was below 1000 nM.

Take `COc1ncc(C(F)(F)F)cc1CO[C@H]1[C@H](C(C)(C)C)[C@@H](C(=O)O)N(C(=O)OC(C)C)[C@H]1c1cccc(Cl)c1` [Example 79, (2S,3R,4S,5S)-3-tert-butyl-5-(3-chlorophenyl)-4-{[2-methoxy-5-(trifluoromethyl)pyridin-3-yl]methoxy}-1-{[(propan-2-yl)oxy]carbonyl}pyrrolidine-2-carboxylic acid]: the “Maximum % activity (with co-corrector)” value is “++ (≥150 and <350)”; the “Maximum % activity (without co-corrector)” value was “+ (<100)”. Moreover, the EC50 under setting [1] is 1000 to 10000 nM. Besides, the EC50 under setting [2] was 1000 to 10000 nM.

Turning to `COc1cc(C(F)(F)F)ccc1CO[C@H]1[C@H](C(C)(C)C)[C@@H](C(=O)O)N(C(=O)[C@@H]2CCC[C@@H](OC)C2)[C@H]1c1ccccc1` [Example 33, (2S,3R,4S,5S)-3-tert-butyl-1-[(1R,3R)-3-methoxycyclohexane-1-carbonyl]-4-{[2-methoxy-4-(trifluoromethyl)phenyl]methoxy}-5-phenylpyrrolidine-2-carboxylic acid], the “Maximum % activity (with co-corrector)” value was “+++ (≥350)”; the “Maximum % activity (without co-corrector)” value was “++ (≥100 and <200)”. Moreover, the EC50 under setting [1] was in the range of 1000 to 10000 nM. Moreover, under setting [2], the EC50 was 1000 to 10000 nM.

As to `[2H]C([2H])([2H])Oc1ccc(C(F)(F)F)cc1C([2H])([2H])O[C@H]1[C@H](C(C)(C)C)[C@@H](C(=O)O)N(C(=O)[C@@H]2CCCCO2)[C@H]1c1ccccc1C` [Example 234, (2S,3R,4S,5S)-3-tert-butyl-4-{[{2-[(^2H3)methyloxy]-5-(trifluoromethyl)phenyl}(^2H2)methyl]oxy}-5-(2-methylphenyl)-1-[(2S)-oxane-2-carbonyl]pyrrolidine-2-carboxylic acid], the “Maximum % activity (with co-corrector)” value was “+++ (≥350)” and the “Maximum % activity (without co-corrector)” value is listed as “+++ (≥200)”. Under setting [1], the EC50 was below 1000 nM. For the same molecule, the 50% effective concentration (EC50) under setting [2] is below 1000 nM.

On to `COc1nc2cc(C)cc(C)c2cc1CO[C@H]1[C@H](C(C)(C)C)[C@@H](C(=O)O)N(C(=O)C2CCCCC2)[C@H]1c1cccnc1OC(C)C` [Example 252, (2S,3R,4S,5S)-3-tert-butyl-1-(cyclohexanecarbonyl)-4-[(2-methoxy-5,7-dimethylquinolin-3-yl)methoxy]-5-{2-[(propan-2-yl)oxy]pyridin-3-yl}pyrrolidine-2-carboxylic acid], for which the “Maximum % activity (with co-corrector)” value is reported as “+++ (≥350)” and the “Maximum % activity (without co-corrector)” value was “+++ (≥200)”. In addition, the EC50 under setting [1] is 1000 to 10000 nM. In addition, the half-maximal effective concentration (EC50) under setting [2] is 1000 to 10000 nM.

`COc1ncc(C2CCC2)cc1CO[C@H]1[C@H](C(C)(C)C)[C@@H](C(=O)O)N(C(=O)OC(C)C)[C@H]1c1ccccc1` [Example 45, (2S,3R,4S,5S)-3-tert-butyl-4-[(5-cyclobutyl-2-methoxypyridin-3-yl)methoxy]-5-phenyl-1-{[(propan-2-yl)oxy]carbonyl}pyrrolidine-2-carboxylic acid]: the “Maximum % activity (with co-corrector)” value is “+++ (≥350)”; the “Maximum % activity (without co-corrector)” value is “++ (≥100 and <200)”. Moreover, the 50% effective concentration (EC50) under setting [1] was 1000 to 10000 nM. For the same molecule, the EC50 under setting [2] lay in the range of 1000 to 10000 nM.

For `COc1ncc(C2CCC2)cc1CO[C@H]1[C@H](C(C)(C)C)[C@@H](C(=O)O)N(C(=O)[C@@H]2CCCO2)[C@H]1c1cccnc1OC(C)C` [Example 133, (2S,3R,4S,5S)-3-tert-butyl-4-[(5-cyclobutyl-2-methoxypyridin-3-yl)methoxy]-1-[(2S)-oxolane-2-carbonyl]-5-{2-[(propan-2-yl)oxy]pyridin-3-yl}pyrrolidine-2-carboxylic acid], the “Maximum % activity (with co-corrector)” value is listed as “+++ (≥350)”; the “Maximum % activity (without co-corrector)” value was “++ (≥100 and <200)”. Besides, under setting [1], the 50% effective concentration (EC50) lay in the range of 1000 to 10000 nM. Moreover, under setting [2], the concentration for a half-maximal effect (EC50) was in the range of 1000 to 10000 nM.

With `COc1ncc(Br)cc1CO[C@H]1[C@H](C(C)(C)C)[C@@H](C(=O)O)N(C(=O)OC(C)C)[C@H]1c1ccccc1` [Example 40, (2S,3R,4S,5S)-4-[(5-bromo-2-methoxypyridin-3-yl)methoxy]-3-tert-butyl-5-phenyl-1-{[(propan-2-yl)oxy]carbonyl}pyrrolidine-2-carboxylic acid], the “Maximum % activity (with co-corrector)” value is given as “+++ (≥350)”; the “Maximum % activity (without co-corrector)” value was “++ (≥100 and <200)”. In addition, under setting [1], the EC50 lay within 1000 to 10000 nM. The 50% effective concentration (EC50) under setting [2] fell in the range of 1000 to 10000 nM.

Consider `COc1ncc(C(F)(F)F)cc1CO[C@H]1[C@H](C(C)(C)C)[C@@H](C(=O)O)N(C(=O)OC(C)C)[C@H]1c1ccccc1Br` [Example 86, (2S,3R,4S,5S)-5-(2-bromophenyl)-3-tert-butyl-4-{[2-methoxy-5-(trifluoromethyl)pyridin-3-yl]methoxy}-1-{[(propan-2-yl)oxy]carbonyl}pyrrolidine-2-carboxylic acid], for which the “Maximum % activity (with co-corrector)” value was “+++ (≥350)”; the “Maximum % activity (without co-corrector)” value was “++ (≥100 and <200)”. The EC50 under setting [1] was in the range of 1000 to 10000 nM. For the same molecule, under setting [2], the half-maximal effective concentration (EC50) is below 1000 nM.

Consider `COc1ccc(C(C)(C)C)cc1CO[C@H]1[C@H](C(C)(C)C)[C@@H](C(=O)O)N(C(=O)C2CCCCC2)[C@H]1c1cccnc1OC(C)C` [Example 251, (2S,3R,4S,5S)-3-tert-butyl-4-[(5-tert-butyl-2-methoxyphenyl)methoxy]-1-(cyclohexanecarbonyl)-5-{2-[(propan-2-yl)oxy]pyridin-3-yl}pyrrolidine-2-carboxylic acid], for which the “Maximum % activity (with co-corrector)” value was “+++ (≥350)” and the “Maximum % activity (without co-corrector)” value is recorded as “+++ (≥200)”. The EC50 under setting [1] is below 1000 nM. The EC50 under setting [2] was below 1000 nM.

In the case of `COc1nc2ccccc2cc1CO[C@H]1[C@H](C(C)(C)C)[C@@H](C(=O)O)N(C(=O)[C@@H]2CCCO2)[C@H]1c1ccccc1C1CC1` [Example 139, (2S,3R,4S,5S)-3-tert-butyl-5-(2-cyclopropylphenyl)-4-[(2-methoxyquinolin-3-yl)methoxy]-1-[(2S)-oxolane-2-carbonyl]pyrrolidine-2-carboxylic acid], the “Maximum % activity (with co-corrector)” value is on record as “+++ (≥350)”; the “Maximum % activity (without co-corrector)” value was “++ (≥100 and <200)”. Under setting [1], the EC50 is 1000 to 10000 nM. Further, the EC50 under setting [2] is below 1000 nM.

For the molecule `COc1ccc(Br)cc1CO[C@H]1[C@H](C(C)(C)C)[C@@H](C(=O)O)N(C(=O)OC(C)C)[C@H]1c1ccccc1` [Example 36, (2S,3R,4S,5S)-4-[(5-bromo-2-methoxyphenyl)methoxy]-3-tert-butyl-5-phenyl-1-{[(propan-2-yl)oxy]carbonyl}pyrrolidine-2-carboxylic acid], the “Maximum % activity (with co-corrector)” value is on record as “+++ (≥350)”; the “Maximum % activity (without co-corrector)” value is “++ (≥100 and <200)”. For the same molecule, the concentration for a half-maximal effect (EC50) under setting [1] is 1000 to 10000 nM. Besides, the half-maximal effective concentration (EC50) under setting [2] fell in the range of 1000 to 10000 nM.

The record behind these values is US10399940B2, “Substituted pyrrolidines and methods of use” (AbbVie S.à.r.l., priority 2016, dated 2019).
